{
  "source": "patent US20060078584A1",
  "about": "“Multi-functional oxidizing composition” (priority 2004, published 2006)",
  "key": {"[1]": {"assay": "Storage stability of dry blends (ambient and accelerated aging in humid oven)", "format": "physicochemical", "settings": "one month", "method": "In all examples, active oxidant concentrations are expressed in weight percent and are determined by standard iodometric titration as described in the “OXONE Monopersulfate Compound Technical Information” Bulletin, No. H-42434-5, dated April 2000, published by E. I. du Pont de Nemours and Company.\nA weighed sample (0.05-0.30 g) to be analyzed is dissolved in cold deionized water (<10° C., about 50 mL), treated with potassium iodide solution (10 mL 25% aqueous), acidified (10 mL 20% sulfuric acid), and titrated with standardized 0.1N sodium thiosulfate reagent to an endpoint visualized by a starch indicator. The total active oxidant content (active oxygen+active halogen) is expressed as percent active oxygen (% AO) and is calculated as follows: % AO=(0.8×Volume of titrant, mL)(Normality of titrant)/(Sample Weight, g).\nOXONE monopersulfate compound (180 g, 90 wt. %) and anhydrous sodium dichloro-s-triazinetrione (20 g, 10 wt. %) were dry blended in a 250-ml high-density poly(propylene (HDPE) bottle. The mixture was placed on a laboratory roll mill for two hours to ensure complete blending of the components. The blended product was then divided into two portions. One portion was stored at ambient conditions (22±2° C., 55±5% relative humidity [RH]); the other in a humid oven at 50±2° C., 80±5% RH denoted as “accelerated aging”). Both portions were stored in sealed screw-cap HDPE bottles. Both samples were monitored on a weekly basis for one month to assess physical integrity and active oxidant loss. […]. […]."}, "[2]": {"assay": "Solubility in water and in acidic potassium monopersulfate solution", "settings": "in a 20% potassium monopersulfate solution, pH of about 1.2"}, "[3]": {"settings": "cited from earlier work"}, "[4]": {"settings": "accelerated aging, 50° C., 80% RH"}, "[5]": {"settings": "accelerated aging, 50±2° C., 80±5% RH, sealed HDPE containers"}},
  "note": "Read-outs that look alike come from different tables or passages of the source.",
  "data": [
    {"smiles": "O=c1nc([O-])n(Cl)c(=O)n1Cl.[Na+]", "note": "[Comparative Example E, Anhydrous sodium dichloro-s-triazinetrione]", "values": [
      {"measurement": "Active oxidant retention / loss", "setting": "[1]; [4]", "result": "acceptable active oxidant stability"},
      {"measurement": "Chlorine odor / halogen evolution", "setting": "[1]; [4]", "result": "characteristic chlorine odor"},
      {"measurement": "Flowability", "setting": "[1]; [4]", "result": "good flowability"},
      {"measurement": "Chlorine Odor (degree 0-5)", "setting": "[1]; [5]", "result": 3},
      {"measurement": "Flowability", "setting": "[1]; [5]", "result": "Free-flowing"},
      {"measurement": "Total % AO Remaining (%)", "setting": "[1]; total oxidant (active oxygen + active halogen) remaining after accelerated storage, 50° C., 80% RH", "result": 93, "unit": "%"},
      {"measurement": "Solubility", "setting": "[2]", "result": "about 1 g/100 mL"},
      {"measurement": "Solubility in water", "setting": "[3]; neutral pH (about pH 6-7), 25° C.", "result": "about 24 g/100 g H2O"}
    ]},
    {"smiles": "CC1(C)C(=O)N(Br)C(=O)N1Br", "note": "[dibromodimethylhydantion, 1,3-dibromo-5,5-dimethylhydantoin]", "values": [
      {"measurement": "Solubility in water", "setting": "[3]", "result": 0.25, "unit": "g/100 g water"}
    ]},
    {"smiles": "CC1(C)C(=O)N(Br)C(=O)N1Cl", "note": "[bromochlorodimethylhydantion, 3-bromo-1-chloro-5,5-dimethylhydantoin]", "values": [
      {"measurement": "Solubility in water", "setting": "[3]", "result": 0.2, "unit": "g/100 g water"}
    ]},
    {"smiles": "CC1(C)C(=O)N(Cl)C(=O)N1Cl", "note": "[dichlorodimethylhydantion, 1,3-dichloro-5,5-dimethylhydantoin]", "values": [
      {"measurement": "Solubility in water", "setting": "[3]", "result": 0.2, "unit": "g/100 g water"}
    ]}
  ]
}
